Experimental data from US20010014324A1 (priority 1998, published 2001).

Tests used:
Phytophthora infestans = assay type: in vivo; conditions: potato; standard chemical inducer at 500 ppm
[1] = test system: Puccinia recondita spp. tritici; assay: Induced plant defense on wheat against Puccinia recondita spp. tritici (spray treatment); assay type: in vivo
Protocol: Ten seeds of wheat ([…]) of the variety “Arina” were grown in pots of 8 cm diameter in a mixture of ⅓ sand and ⅔ TKS1® soil at +25° C. in a 16/8 h light/dark regime. for 7 days till the primary leaf was fully expended.
Brown rust strain Puccinia recondita spp. tritici was propagated on the same variety of wheat. Fully infected, sporulating leaves were cut and the spores dusted onto water containing 0.05% of Tween 20®. The inoculum density was adjusted to 100,000 spores per ml.
Wheat plants with the secondary leaf just emerging were sprayed 7 and 3 days before inoculation. The entire plant was sprayed with PEN extract containing 1-2 g of glucose equivalents and 0.05% of Tween 20 to near run-off with an air driven spray pistol, model JATO 232 FR at 0.5 bar.
After the treatment plants were kept in the greenhouse till they were challenge inoculated. Control plants were mock treated with distilled water.
Treated or control plants were sprayed with approximately 3 ml of sporangia suspension in a ventilated inoculation chamber using an air driven spray pistol, model JATO 232 FR at 0.2 bar to generate a homogeneous layer of fine troplets on the whole seedling.
When the troplets had dried, plants were transferred to Plexiglas boxes and kept at +20° C. and a 60% relative humidity for 24 h in the dark then light was switched on and the plants kept under the same conditions for additional four days. Afterwards plants were returned to the greenhouse and kept at standard conditions as described above.
10 days after inoculation, when the fungus sporulated on control plants, the degree of infection was visually determined as % of infected leaf area on the inoculated leaves plants. The degree of protection was calculated with respect to the control plants according to the formula: [formula]

Structure (SMILES) | % infected leaf area (Phytophthora infestans) | % protection (Phytophthora infestans) | % infected ([1]; concentration 30 ppm) | % protection ([1]; concentration 30 ppm) | % infected ([1]; concentration 60 ppm) | % protection ([1]; concentration 60 ppm)
CC(N)CC(=O)O (stereo not drawn) [BABA, beta-butyric acid] | 23% | 61% |  |  |  | 
CSC(=O)c1cccc2nnsc12 [CGA 245 704] |  |  | 31.3% | 48.8% | 60% | 20%
